According to patent US10100011B2, “Pentadienoyl piperidine derivative and use thereof” (Industry-Academic Cooperation Foundation, Yonsei University, priority 2014, dated 2018):

Columns and labels:
[1] = target: T1, human recombinant SIRT1 enzyme (Homo sapiens, UniProt Q96EB6); assay: SIRT1 activity measurement (SIRT1 Fluorometric Drug Discovery Kit); format: biochemical
T1 construct: purchased ENZO Life Sciences Inc., NY, USA BML-AK555
T1 sequence (Q96EB6 1-747): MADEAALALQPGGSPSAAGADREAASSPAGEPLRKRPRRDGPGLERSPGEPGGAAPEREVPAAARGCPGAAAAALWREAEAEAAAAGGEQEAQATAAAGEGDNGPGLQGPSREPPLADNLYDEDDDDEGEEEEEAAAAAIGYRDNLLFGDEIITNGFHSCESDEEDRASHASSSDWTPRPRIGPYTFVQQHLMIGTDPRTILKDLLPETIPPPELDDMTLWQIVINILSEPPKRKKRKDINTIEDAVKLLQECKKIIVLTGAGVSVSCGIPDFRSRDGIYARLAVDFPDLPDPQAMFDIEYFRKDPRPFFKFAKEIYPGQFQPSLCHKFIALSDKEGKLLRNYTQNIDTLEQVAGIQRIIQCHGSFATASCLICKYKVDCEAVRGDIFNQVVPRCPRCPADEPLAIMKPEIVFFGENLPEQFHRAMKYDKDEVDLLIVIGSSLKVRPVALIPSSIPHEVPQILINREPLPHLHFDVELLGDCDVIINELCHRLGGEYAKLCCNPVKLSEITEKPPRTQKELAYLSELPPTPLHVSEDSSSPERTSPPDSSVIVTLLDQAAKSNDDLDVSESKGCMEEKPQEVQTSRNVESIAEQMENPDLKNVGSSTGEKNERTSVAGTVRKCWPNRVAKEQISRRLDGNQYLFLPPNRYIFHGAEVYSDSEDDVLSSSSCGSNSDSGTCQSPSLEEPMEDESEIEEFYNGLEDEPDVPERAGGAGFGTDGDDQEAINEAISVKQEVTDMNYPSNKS
Method: To analyze SIRT1 activity in a test tube, a deacetylation degree of acetylated lysine included in a substrate was measured using an SIRT1 Fluorometric Drug Discovery Kit (BML-AK555, ENZO Life Sciences Inc., NY, USA). 0.067 U/μl of a human recombinant SIRT1 enzyme and a test substance were mixed in a 96-well plate and reacted at 37° C. for 10 minutes. Subsequently, 167 μM substrate [379th to 382nd amino acid peptide of human p53, Arg-His-Lys-Lys(Ac)] and 1667 μM NAD^+ were added thereto, followed by reacting at 37° C. for 30 minutes. To stop the reaction of SIRT1, 50 μL of a developer including 2 mM nicotinamide was added, followed by reacting at 37° C. for 30 minutes. Chromophoric fluorescence intensity was measured at 360 nm excitation and 460 nm emission.

C57BL/6J mice = assay: Plasma lipid concentrations in mice fed high-fat diet; format: in vivo, mouse; conditions: about 0.05% compound in high-fat diet, 10 weeks
Method: An obesity induction diet used in this experiment was a high-fat diet (HFD: 40% fat calories, 17 g of lard+3% corn oil/100 g diet), and the compositions of diets including the LJ-2501, LJ-2488, LJ-2495, LJ-2496 compounds were identical to that of HFD, except that each of the compounds was included in an amount of about 0.05% (Table 2). As a control drug, an anti-obesity drug, sibutramine (Sibut), was added in an amount of about 0.01% to the high-fat diet and a normal diet group (Chow) was fed with commercial rodent chow.
5-week old 40 male C57BL/6J mice (Orient Bio., Korea) were fed with hard feed and accommodated in a laboratory environment for one week. Subsequently, in accordance with a randomized block method, the mice were randomly grouped into a normal diet group, a high-fat diet control group, two experimental substance groups, and […] and raised for a total of 10 weeks (n=8/group). Diets were supplied with water between 10 am and 11 am every day. An intake amount was measured every day and the body weights of the mice were measured every week. To prevent temporal weight change due to feed intake, feedboxes were removed and, after two hours, the body weights were measured. The experimental animals were fasted for 12 hours or more and then anesthetized with diethyl ether, followed by collecting blood, liver, and visceral adipose tissues (epididymal fat, perirenal fat, mesenteric fat, and retroperitoneal fat). The collected samples were washed with 0.1 M phosphate buffered saline (pH 7.4) and then weighed. Blood samples collected from abdominal aortas were centrifuged at 1000×g for 15 minutes, thereby separating plasma.
Using the aforementioned experimental animals raised for 10 weeks, the concentrations of a total of cholesterol, neutral fat, and glucose in plasma and lipid components in liver tissue were measured as follows. The concentrations of a total of cholesterol, neutral fat, and free fatty acid in plasma were respectively measured twice using a commercial measurement kit (Bio Clinical System).

[2] = tested on: genes related to lipogenesis and AMPK in liver tissue; assay: Gene (RT-PCR) and protein (Western blotting) expression in liver tissue of mice; format: in vivo, mouse; conditions: compound in high-fat diet, pattern similar to Chow group
Method: 1 ml of a TRIzol solution per 0.1 g of epididymal fat tissue was added to the pulverized tissue, followed by centrifuging at 4° C. and 12,000×g for 10 minutes. A supernatant was transferred into a new tube and then 200 μl of chloroform was added thereto, followed by vortexing. This process was repeated twice and then a supernatant was transferred into a new tube. Subsequently, isopropanol and the supernatant were mixed in a ratio of 1:1 and strongly shook ten times, followed by standing at room temperature for 10 minutes. Subsequently, centrifugation was carried out at 12,000×g and 4° C. for 10 minutes, followed by removing a supernatant and adding 1 ml of 70% ethanol to the remaining precipitate. Subsequently, centrifugation was carried out at 7,500×g and 4° C. for five minutes. Ethanol was removed and then the tube containing an RNA precipitate was dried at room temperature for five minutes. […] The concentrations of the extracted RNA samples were measured at wavelengths of 260 nm and 280 nm by means of a UV/VIS spectrophotometer (Beckman Coulter, DU730). […]
A predetermined amount of visceral fat or liver tissue was homogenized with liquid nitrogen and a lysis buffer in a mortar and then centrifuged at 13,000 rpm and 4° C. for 20 minutes. Subsequently, a middle layer was collected and subjected to protein quantification according to the Bradford method. […]

- Vmax value of SIRT1 ([1]; in presence of 600 μM compound): without change
- concentration at which SIRT1 activity was highest ([1]; increasing concentration of compound, human recombinant SIRT1): 600 µM
SMILES: CSc1ccc(/C=C/C=C/C(=O)N2CCCCC2)cc1 [LJ-2501, (2E,4E)-5-(4-(methylthio)phenyl)-1-(piperine-1-yl)penta-2,4-diene-1-one]
- plasma LDL+VLDL cholesterol concentration, reduction compared to HFD (C57BL/6J mice): 27%
- plasma free fatty acid concentration, reduction compared to HFD (C57BL/6J mice): 69%
- plasma neutral fat concentration, reduction compared to HFD (C57BL/6J mice): 34%
- plasma total cholesterol concentration, reduction compared to HFD (C57BL/6J mice): 35%
- HFD-caused increase of expression of downstream genes of AMPK (LXRα, SREBP-1c, LPL, FAS, ACC) in liver tissue ([2]; RT-PCR): reversed
- HFD-caused reduction of AMPK phosphorylation in liver tissue ([2]; Western blotting): reversed
